Assay results published in ChEMBL document CHEMBL1201862, “PubChem BioAssay data set” (2004).
Active and inactive are the calls of the source.

Legend:
[1] = biological target: Melanin-concentrating hormone receptor 1 (Homo sapiens, UniProt Q99705); assay: Late-stage fluorescence-based counterscreen for antagonists of the G-protein coupled receptor 7 (GPR7): cell-based dose response assay to identify antagonists of the melanin-concentrating hormone receptor 1 (MCHR1) Set 6.; type: functional
[2] = biological target: Neuropeptides B/W receptor type 1 (Homo sapiens, UniProt P48145); assay: human NPBW1 receptor blockade, IC50 – cell-based, fluorescence, dose response, set 6, late-stage follow-up (AID 588583); type: functional
Vero = assay: cells; type: functional; conditions: Chlorocebus sabaeus
CAAX prenyl protease 2 [3] = biological target: CAAX prenyl protease 2 (Saccharomyces cerevisiae S288c, UniProt Q03530); type: biochemical
CAAX prenyl protease 1 = CAAX prenyl protease 1 (Saccharomyces cerevisiae S288c, UniProt P47154); assay: yeast CAAX protease Ste24 inhibition – biochemical, S. cerevisiae, plate reader, cherry-pick, dose response (AID 488815)
CAAX prenyl protease 2 [4] = biological target: CAAX prenyl protease 2 (Homo sapiens, UniProt Q9Y256); assay: inhibition of Ras-converting CAAX protease Rce1 – biochemical, yeast membranes, quenched-peptide fluorescence, cherry-pick, dose response (AID 588849)
[5] = NIH-3T3 fibroblast cytotoxicity, dose response, cytotoxicity control, cell-based, fluorescence, Alamar Blue, secondary assay (AID 2327); type: functional;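 also: NIH-3T3 mouse fibroblasts cultured with fluconazole at 8 µg/mL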
[6] = fluconazole-exposed Candida albicans growth modulators – fluorescence, retest, confirmation (AID 2467); type: functional, cell-based
[7] = biological target: Serine/threonine-protein phosphatase (Candida dubliniensis (strain CD36 / CBS 7987 / NCPF 3949 / NRRLY-17841) (Yeast), UniProt B9W6M3); assay: blockers of CaCl2-induced CDRE-lacZ signaling – S. cerevisiae, luminescence, secondary, dose response (AID 2388); type: functional, cell-based;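 also: yeast reporter cells carrying a calcineurin-responsive lacZ construct stimulated with calcium chloride; luminescent beta-galactosidase reporter signal in whole cells rather than isolated phosphatase activity; potency for inhibition where a drop in reporter signal means calcineurin blockade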
[8] = Luminescence Cell-Based Dose Retest to Confirm Inhibitors of Cancer Stem Cells. [Related pubchem assays (depositor defined):AID2717, AID2721]; type: functional; conditions: Homo sapiens
[9] = biological target: ATP-dependent molecular chaperone HSP82 (Candida albicans (strain WO-1) (Yeast), UniProt C4YTQ8); assay: steroid-induced GRE reporter decrease in yeast – S. cerevisiae, luminescence, Hsp90 inhibitor project, dose response (AID 2400); type: functional, cell-based;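 also: beta-galactosidase luminescence from glucocorticoid response element reporter as proxy for Hsp90 function; inhibitor potency where signal loss means Hsp90 inhibition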
Cysteine protease ATG4B = Cysteine protease ATG4B (Homo sapiens, UniProt Q9Y4P1); type: functional;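 also: Fluorescence-based dose-response confirmation assay measuring inhibition of ATG4B activity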
Phospholipase A2 = Phospholipase A2 (Homo sapiens, UniProt P04054); type: functional;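 also: confirmatory dose-response counterscreen on phospholipase A2, testing hits that came from an ultra-high-throughput screen for ATG4B inhibitors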
Sequence of Phospholipase A2 (P04054 whole entry): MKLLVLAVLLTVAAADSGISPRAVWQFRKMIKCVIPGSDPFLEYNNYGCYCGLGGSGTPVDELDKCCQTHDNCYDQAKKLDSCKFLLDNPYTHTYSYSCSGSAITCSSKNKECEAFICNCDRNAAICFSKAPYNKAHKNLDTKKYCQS

Sequence of Melanin-concentrating hormone receptor 1 (Q99705 whole entry): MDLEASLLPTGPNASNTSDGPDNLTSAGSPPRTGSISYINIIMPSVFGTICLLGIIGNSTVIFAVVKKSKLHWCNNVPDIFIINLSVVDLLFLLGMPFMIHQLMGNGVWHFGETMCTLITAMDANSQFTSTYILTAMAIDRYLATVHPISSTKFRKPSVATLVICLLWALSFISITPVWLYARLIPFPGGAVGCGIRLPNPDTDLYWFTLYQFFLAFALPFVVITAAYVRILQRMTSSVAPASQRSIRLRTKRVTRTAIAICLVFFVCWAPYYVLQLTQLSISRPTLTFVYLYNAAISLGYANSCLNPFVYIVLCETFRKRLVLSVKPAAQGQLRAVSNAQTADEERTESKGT
Sequence of Neuropeptides B/W receptor type 1 (P48145 whole entry): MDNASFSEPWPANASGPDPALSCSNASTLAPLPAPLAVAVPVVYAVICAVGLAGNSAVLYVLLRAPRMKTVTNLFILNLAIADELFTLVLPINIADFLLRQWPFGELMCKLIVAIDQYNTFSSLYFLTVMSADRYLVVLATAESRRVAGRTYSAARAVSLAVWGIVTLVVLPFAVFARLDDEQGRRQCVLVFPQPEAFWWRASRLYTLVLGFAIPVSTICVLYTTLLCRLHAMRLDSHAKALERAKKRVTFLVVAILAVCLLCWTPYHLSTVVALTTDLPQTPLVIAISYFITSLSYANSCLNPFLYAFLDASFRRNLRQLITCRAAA
Sequence of CAAX prenyl protease 2 (Homo sapiens, UniProt Q9Y256) (Q9Y256 whole entry): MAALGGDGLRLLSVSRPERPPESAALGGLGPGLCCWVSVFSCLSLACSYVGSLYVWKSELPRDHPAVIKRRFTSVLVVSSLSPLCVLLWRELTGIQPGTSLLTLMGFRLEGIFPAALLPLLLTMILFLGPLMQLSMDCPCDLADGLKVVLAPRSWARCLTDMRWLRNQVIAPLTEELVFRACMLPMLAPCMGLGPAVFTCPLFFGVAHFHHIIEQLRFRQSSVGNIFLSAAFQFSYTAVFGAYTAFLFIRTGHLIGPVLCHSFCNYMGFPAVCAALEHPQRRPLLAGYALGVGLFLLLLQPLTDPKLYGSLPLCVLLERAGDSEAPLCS
Sequence of ATP-dependent molecular chaperone HSP82 (C4YTQ8 whole entry): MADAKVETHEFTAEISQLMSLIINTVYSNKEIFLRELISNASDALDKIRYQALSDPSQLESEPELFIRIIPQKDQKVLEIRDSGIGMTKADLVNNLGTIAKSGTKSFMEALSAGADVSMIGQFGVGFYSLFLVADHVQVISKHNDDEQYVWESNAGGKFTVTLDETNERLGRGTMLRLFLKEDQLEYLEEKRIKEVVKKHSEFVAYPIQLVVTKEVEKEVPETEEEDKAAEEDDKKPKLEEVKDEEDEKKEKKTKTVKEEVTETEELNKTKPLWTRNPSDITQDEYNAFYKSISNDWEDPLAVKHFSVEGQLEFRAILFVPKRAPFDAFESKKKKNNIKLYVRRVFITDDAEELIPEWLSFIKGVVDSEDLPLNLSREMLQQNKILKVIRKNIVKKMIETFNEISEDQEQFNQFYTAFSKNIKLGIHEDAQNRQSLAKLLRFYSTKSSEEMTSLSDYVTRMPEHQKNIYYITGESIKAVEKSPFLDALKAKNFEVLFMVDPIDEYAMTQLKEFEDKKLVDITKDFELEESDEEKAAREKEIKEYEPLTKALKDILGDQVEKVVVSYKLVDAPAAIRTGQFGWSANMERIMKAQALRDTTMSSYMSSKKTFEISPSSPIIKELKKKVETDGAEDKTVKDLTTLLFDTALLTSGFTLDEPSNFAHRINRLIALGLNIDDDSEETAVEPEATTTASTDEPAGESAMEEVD
Sequence of CAAX prenyl protease 1 (P47154 whole entry): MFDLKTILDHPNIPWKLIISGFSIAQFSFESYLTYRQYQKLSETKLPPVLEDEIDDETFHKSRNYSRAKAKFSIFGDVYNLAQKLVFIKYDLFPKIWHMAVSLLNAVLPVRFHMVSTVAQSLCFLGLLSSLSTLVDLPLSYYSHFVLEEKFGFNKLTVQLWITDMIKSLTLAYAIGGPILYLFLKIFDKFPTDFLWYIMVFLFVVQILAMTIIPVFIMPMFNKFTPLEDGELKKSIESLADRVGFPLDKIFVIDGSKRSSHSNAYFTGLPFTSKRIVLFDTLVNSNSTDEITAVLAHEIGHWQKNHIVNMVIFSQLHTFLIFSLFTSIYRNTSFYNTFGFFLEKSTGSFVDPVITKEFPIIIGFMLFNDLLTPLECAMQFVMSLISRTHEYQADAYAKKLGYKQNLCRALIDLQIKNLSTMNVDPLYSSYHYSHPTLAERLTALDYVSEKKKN
Sequence of CAAX prenyl protease 2 (Saccharomyces cerevisiae S288c, UniProt Q03530) (Q03530 whole entry): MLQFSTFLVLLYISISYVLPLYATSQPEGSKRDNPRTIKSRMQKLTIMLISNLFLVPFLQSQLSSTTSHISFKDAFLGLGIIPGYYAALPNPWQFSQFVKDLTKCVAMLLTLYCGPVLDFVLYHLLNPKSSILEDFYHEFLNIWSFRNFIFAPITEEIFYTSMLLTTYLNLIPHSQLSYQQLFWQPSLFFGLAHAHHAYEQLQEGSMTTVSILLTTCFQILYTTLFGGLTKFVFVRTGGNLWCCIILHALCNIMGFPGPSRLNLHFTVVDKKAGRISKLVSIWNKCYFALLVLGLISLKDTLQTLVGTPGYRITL
Sequence of Cysteine protease ATG4B (Q9Y4P1 whole entry): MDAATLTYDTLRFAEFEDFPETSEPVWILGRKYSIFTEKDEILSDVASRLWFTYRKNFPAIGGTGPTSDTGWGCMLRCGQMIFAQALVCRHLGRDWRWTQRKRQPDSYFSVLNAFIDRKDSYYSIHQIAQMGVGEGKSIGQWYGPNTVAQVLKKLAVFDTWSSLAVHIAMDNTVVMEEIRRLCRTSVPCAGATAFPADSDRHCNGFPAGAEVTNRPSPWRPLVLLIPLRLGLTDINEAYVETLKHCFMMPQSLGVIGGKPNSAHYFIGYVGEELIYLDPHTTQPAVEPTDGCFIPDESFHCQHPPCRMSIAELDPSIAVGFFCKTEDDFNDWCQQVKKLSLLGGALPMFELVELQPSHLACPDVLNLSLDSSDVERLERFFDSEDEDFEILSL
Sequence of Serine/threonine-protein phosphatase (B9W6M3 whole entry): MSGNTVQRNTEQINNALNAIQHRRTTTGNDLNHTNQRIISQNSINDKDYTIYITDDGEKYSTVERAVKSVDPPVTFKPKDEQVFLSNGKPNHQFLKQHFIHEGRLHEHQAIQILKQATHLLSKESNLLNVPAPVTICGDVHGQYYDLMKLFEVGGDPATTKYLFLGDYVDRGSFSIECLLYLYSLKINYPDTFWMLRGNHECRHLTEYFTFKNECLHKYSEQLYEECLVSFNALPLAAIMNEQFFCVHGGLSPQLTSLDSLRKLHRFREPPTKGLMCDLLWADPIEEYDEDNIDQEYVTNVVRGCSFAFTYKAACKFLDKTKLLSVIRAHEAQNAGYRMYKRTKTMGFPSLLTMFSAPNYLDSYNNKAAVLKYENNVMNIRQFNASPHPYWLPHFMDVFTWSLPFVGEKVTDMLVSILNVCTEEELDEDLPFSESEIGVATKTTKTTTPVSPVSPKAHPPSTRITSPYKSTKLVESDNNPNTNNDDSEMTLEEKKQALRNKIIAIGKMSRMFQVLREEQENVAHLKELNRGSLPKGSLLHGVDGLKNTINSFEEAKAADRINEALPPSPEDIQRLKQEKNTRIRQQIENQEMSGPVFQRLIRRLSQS

For `COc1ccc(Oc2c(Cl)cnn(Cc3ccccc3Br)c2=O)cc1`, the IC50 [1] was 0.506 µM (active) and the IC50 [2] was 0.506 µM (active).
In the case of `CC(C#N)(c1ccccc1)c1c(Br)cnn(Cc2cccc3ccccc23)c1=O` (stereo not given), the IC50 [1] was 0.326 µM (active) and the IC50 [2] was 0.326 µM (active).
In the case of `CCOc1ccc(Oc2c(/C=N/NC(=O)COc3ccccc3OC)c(C)nn2-c2ccccc2)cc1`, the CC50 (Vero) was > 25 µM (active).
In the case of `CNC(=S)N/N=C/c1cn(Cc2c(F)cccc2Cl)c2ccccc12`, the AC50 (CAAX prenyl protease 2 [3]) was 0.818 µM (active), the AC50 (CAAX prenyl protease 1) was 7.58 µM (active) and the AC50 (CAAX prenyl protease 2 [4]) was 16 µM (active).
In the case of `Cc1cccc(C(=O)NNC2=C(C(=O)C(F)(F)F)CCC2)c1O`, the EC50 [5] was > 160 µM (inactive), the EC50 [6] was 0.53 µM (active) and the EC50 [7] was > 180 µM (inactive). The AC50 [8] was 3.16 µM (active) and the EC50 [9] was 35.6 µM (active).
In the case of `CCOC(=O)C(C)Sc1nc2ccccc2c(=O)n1CC1CCCCC1` (stereo not given), the IC50 (Cysteine protease ATG4B) was 2.36 µM (active) and the IC50 (Phospholipase A2) was 2.05 µM (active).
